Data on two compounds can be found in ChEMBL document CHEMBL5260810, “Inhibition of bromodomain-containing protein 9 for the prevention of epigenetically-defined drug resistance” (Bioorg Med Chem Lett, 2017).

Test system in one test: not listed separately
Kind of test: Cytotoxicity against human HS-Sultan cells measured after 8 days. Type of test: functional, cell-based. The note with it: 192 h.
As for `C/C=C/Cn1cc(-c2cc(OC)c(C(=O)N3CCOCC3)cc2OC)c2cc(C)[nH]c2c1=O`, the IC50 is 2 µM. This lies in the single-digit micromolar range.

`C/C=C/Cn1cc(-c2ccc(C(C)(C)O)cc2OC)c2cc[nH]c2c1=O` had an IC50 of 20 µM. Compared with the last compound, the IC50 is about 10-fold higher.

Test system in a further test: not listed separately
As to the kind of experiment: Cytotoxicity against human KMS-21BM cells measured after 8 days. It counts as functional, cell-based. The following applies: 192 h.
Compound `C/C=C/Cn1cc(-c2cc(OC)c(C(=O)N3CCOCC3)cc2OC)c2cc(C)[nH]c2c1=O` gave an IC50 of 2 µM.

`C/C=C/Cn1cc(-c2ccc(C(C)(C)O)cc2OC)c2cc[nH]c2c1=O` came in with an IC50 of 20 µM.

Test system in a further test: not listed separately
Kind of test: Cytotoxicity against human KMM-1 cells measured after 8 days. The note with it: KMM-1, 192 h. Type of test: functional, cell-based.
Compound `C/C=C/Cn1cc(-c2cc(OC)c(C(=O)N3CCOCC3)cc2OC)c2cc(C)[nH]c2c1=O` had an IC50 of 2 µM.

For `C/C=C/Cn1cc(-c2ccc(C(C)(C)O)cc2OC)c2cc[nH]c2c1=O`, it took 20 µM to reach half-maximal inhibition (IC50).

Another test relates to K562. As to the kind of experiment: Cytotoxicity against human K562 cells measured after 8 days. It counts as functional, cell-based. The note with it: K562, 192 h.
Compound `C/C=C/Cn1cc(-c2cc(OC)c(C(=O)N3CCOCC3)cc2OC)c2cc(C)[nH]c2c1=O` showed an IC50 of 2 µM.

The compound `C/C=C/Cn1cc(-c2ccc(C(C)(C)O)cc2OC)c2cc[nH]c2c1=O` returned an IC50 of 20 µM.

A further test concerns NCI-H2122. As to the kind of experiment: Cytotoxicity against human NCI-H2122 cells measured after 8 days. It counts as functional, cell-based. The note with it: NCI-H2122, 192 h.
Regarding `C/C=C/Cn1cc(-c2cc(OC)c(C(=O)N3CCOCC3)cc2OC)c2cc(C)[nH]c2c1=O`, inhibition was half-maximal at 2 µM (IC50).

Consider `C/C=C/Cn1cc(-c2ccc(C(C)(C)O)cc2OC)c2cc[nH]c2c1=O`, for which the IC50 was 20 µM.

The subject of another test is SK-MES-1. Kind of test: Cytotoxicity against human SK-MES-1 cells measured after 8 days. It counts as functional, cell-based. The following applies: SK-MES-1, 192 h.
With `C/C=C/Cn1cc(-c2cc(OC)c(C(=O)N3CCOCC3)cc2OC)c2cc(C)[nH]c2c1=O`, the IC50 was found to be 2 µM.

In turn, `C/C=C/Cn1cc(-c2ccc(C(C)(C)O)cc2OC)c2cc[nH]c2c1=O` showed an IC50 of 20 µM.

For a further test, the system named is SU-DHL-16. As to the kind of experiment: Cytotoxicity against human SU-DHL-16 cells measured after 8 days. The following applies: SU-DHL-16, 192 h. It counts as functional, cell-based.
`C/C=C/Cn1cc(-c2cc(OC)c(C(=O)N3CCOCC3)cc2OC)c2cc(C)[nH]c2c1=O` showed a concentration for half-maximal inhibition (IC50) of 2 µM.

`C/C=C/Cn1cc(-c2ccc(C(C)(C)O)cc2OC)c2cc[nH]c2c1=O` showed a half-maximal inhibitory concentration (IC50) of 13.9 µM.

The next test relates to U-698-M. Kind of test: Cytotoxicity against human U-698-M cells measured after 8 days. Type of test: functional, cell-based. The following applies: 192 h.
Consider `C/C=C/Cn1cc(-c2cc(OC)c(C(=O)N3CCOCC3)cc2OC)c2cc(C)[nH]c2c1=O`, for which the IC50 is 2 µM.

In turn, `C/C=C/Cn1cc(-c2ccc(C(C)(C)O)cc2OC)c2cc[nH]c2c1=O` returned an IC50 of 20 µM.

A further test relates to AU565. As to the kind of experiment: Cytotoxicity against human AU565 cells measured after 8 days. It counts as functional, cell-based. The following applies: AU565, 192 h.
`C/C=C/Cn1cc(-c2cc(OC)c(C(=O)N3CCOCC3)cc2OC)c2cc(C)[nH]c2c1=O`: the IC50 came to 2 µM. In other words, the single-digit micromolar range.

In turn, `C/C=C/Cn1cc(-c2ccc(C(C)(C)O)cc2OC)c2cc[nH]c2c1=O` showed an IC50 of 20 µM.

The test system of the next test is DU-145. Kind of test: Cytotoxicity against human DU-145 cells measured after 8 days. It counts as functional, cell-based. The note with it: DU-145, 192 h.
`C/C=C/Cn1cc(-c2cc(OC)c(C(=O)N3CCOCC3)cc2OC)c2cc(C)[nH]c2c1=O`: the IC50 amounted to 2 µM.

In turn, `C/C=C/Cn1cc(-c2ccc(C(C)(C)O)cc2OC)c2cc[nH]c2c1=O` displayed an IC50 of 20 µM.

In another test the test system is LNCaP. Kind of test: Cytotoxicity against human LNCaP/Ner cells measured after 8 days. Type of test: functional, cell-based. The note with it: 192 h.
The compound `C/C=C/Cn1cc(-c2cc(OC)c(C(=O)N3CCOCC3)cc2OC)c2cc(C)[nH]c2c1=O` came in with an IC50 of 2 µM.

Take `C/C=C/Cn1cc(-c2ccc(C(C)(C)O)cc2OC)c2cc[nH]c2c1=O`: the half-maximal inhibitory concentration (IC50) is 17.8 µM.

A further test relates to LS180. As to the kind of experiment: Cytotoxicity against human LS180 cells measured after 8 days. It counts as functional, cell-based. The note with it: LS180, 192 h.
The compound `C/C=C/Cn1cc(-c2cc(OC)c(C(=O)N3CCOCC3)cc2OC)c2cc(C)[nH]c2c1=O` registered an IC50 of 2 µM.

With `C/C=C/Cn1cc(-c2ccc(C(C)(C)O)cc2OC)c2cc[nH]c2c1=O`, the half-inhibitory concentration (IC50) was 20 µM.

Test system in another test: not listed separately
Kind of test: Cytotoxicity against human HMY-1 cells measured after 8 days. It counts as functional, cell-based. The note with it: HMY-1, 192 h.
On to `C/C=C/Cn1cc(-c2cc(OC)c(C(=O)N3CCOCC3)cc2OC)c2cc(C)[nH]c2c1=O`, for which the IC50 was found to be 2 µM.

Turning to `C/C=C/Cn1cc(-c2ccc(C(C)(C)O)cc2OC)c2cc[nH]c2c1=O`, the IC50 worked out at 20 µM.

Another test relates to Calu-3. As to the kind of experiment: Cytotoxicity against human Calu-3 cells measured after 8 days. The note with it: Calu-3, 192 h. It counts as functional, cell-based.
`C/C=C/Cn1cc(-c2cc(OC)c(C(=O)N3CCOCC3)cc2OC)c2cc(C)[nH]c2c1=O` displayed an IC50 of 2 µM.

The compound `C/C=C/Cn1cc(-c2ccc(C(C)(C)O)cc2OC)c2cc[nH]c2c1=O` gave an IC50 of 20 µM.

Test system in a further test: not listed separately
As to the kind of experiment: Cytotoxicity against human HCC1171 cells measured after 8 days. It counts as functional, cell-based. The following applies: HCC1171, 192 h.
The compound `C/C=C/Cn1cc(-c2cc(OC)c(C(=O)N3CCOCC3)cc2OC)c2cc(C)[nH]c2c1=O` returned an IC50 of 2 µM. That is a single-digit micromolar value.

With `C/C=C/Cn1cc(-c2ccc(C(C)(C)O)cc2OC)c2cc[nH]c2c1=O`, the half-inhibitory concentration (IC50) came to 20 µM.

Another test deals with T1, ATPase family AAA domain-containing protein 2B (Homo sapiens, UniProt Q9ULI0).
T1 sequence (Q9ULI0 whole entry): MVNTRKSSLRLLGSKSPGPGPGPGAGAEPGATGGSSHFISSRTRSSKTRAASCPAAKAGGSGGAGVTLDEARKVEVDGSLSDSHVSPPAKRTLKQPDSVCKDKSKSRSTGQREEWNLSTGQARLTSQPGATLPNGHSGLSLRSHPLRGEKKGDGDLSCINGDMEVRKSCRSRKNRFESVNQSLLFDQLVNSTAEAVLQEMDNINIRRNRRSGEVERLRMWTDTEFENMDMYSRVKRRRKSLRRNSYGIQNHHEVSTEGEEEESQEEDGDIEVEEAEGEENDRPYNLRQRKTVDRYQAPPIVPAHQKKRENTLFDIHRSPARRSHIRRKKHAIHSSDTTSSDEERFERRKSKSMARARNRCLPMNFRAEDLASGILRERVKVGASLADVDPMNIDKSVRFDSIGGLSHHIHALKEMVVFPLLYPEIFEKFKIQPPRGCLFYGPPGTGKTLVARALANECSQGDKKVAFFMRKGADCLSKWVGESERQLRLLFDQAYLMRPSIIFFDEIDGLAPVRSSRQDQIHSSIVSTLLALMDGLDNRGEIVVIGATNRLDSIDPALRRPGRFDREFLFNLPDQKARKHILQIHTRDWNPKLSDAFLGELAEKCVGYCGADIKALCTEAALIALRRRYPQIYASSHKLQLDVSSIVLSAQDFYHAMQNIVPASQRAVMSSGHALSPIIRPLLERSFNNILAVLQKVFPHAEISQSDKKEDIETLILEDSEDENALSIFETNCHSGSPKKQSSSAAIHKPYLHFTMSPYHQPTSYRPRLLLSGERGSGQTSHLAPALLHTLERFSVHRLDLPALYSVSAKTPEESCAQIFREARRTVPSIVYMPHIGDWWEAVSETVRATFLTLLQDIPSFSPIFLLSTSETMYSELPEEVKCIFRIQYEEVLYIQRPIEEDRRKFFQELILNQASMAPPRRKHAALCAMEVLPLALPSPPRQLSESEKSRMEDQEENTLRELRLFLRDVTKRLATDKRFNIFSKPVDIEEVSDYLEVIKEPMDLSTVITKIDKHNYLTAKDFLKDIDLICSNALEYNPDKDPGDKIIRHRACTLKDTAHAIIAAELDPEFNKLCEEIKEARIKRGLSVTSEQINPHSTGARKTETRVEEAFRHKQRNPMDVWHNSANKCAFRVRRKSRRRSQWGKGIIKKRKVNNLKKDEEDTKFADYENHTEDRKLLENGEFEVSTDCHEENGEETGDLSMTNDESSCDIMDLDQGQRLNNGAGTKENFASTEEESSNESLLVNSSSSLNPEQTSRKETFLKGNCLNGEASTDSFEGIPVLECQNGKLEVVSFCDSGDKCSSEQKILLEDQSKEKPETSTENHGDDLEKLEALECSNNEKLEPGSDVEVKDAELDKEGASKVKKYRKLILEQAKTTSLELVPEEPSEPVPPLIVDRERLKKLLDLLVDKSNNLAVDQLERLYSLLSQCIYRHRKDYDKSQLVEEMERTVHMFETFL
Kind of test: Binding affinity to human partial length ATAD2B (Q955 to R1082 residues) expressed in bacterial expression system by BROMOscan assay.
Conditions: not given
Compound `C/C=C/Cn1cc(-c2cc(OC)c(C(=O)N3CCOCC3)cc2OC)c2cc(C)[nH]c2c1=O` returned a Kd of over 10 µM.

With `C/C=C/Cn1cc(-c2ccc(C(C)(C)O)cc2OC)c2cc[nH]c2c1=O`, the Kd was over 10 µM.

The target in a further test is Insulin receptor (Homo sapiens) (UniProt P06213). As to the kind of experiment: Inhibition of InsR (unknown origin) at 1 uM relative to control.
Sequence of Insulin receptor (Homo sapiens) (P06213 28-758 limits assumed): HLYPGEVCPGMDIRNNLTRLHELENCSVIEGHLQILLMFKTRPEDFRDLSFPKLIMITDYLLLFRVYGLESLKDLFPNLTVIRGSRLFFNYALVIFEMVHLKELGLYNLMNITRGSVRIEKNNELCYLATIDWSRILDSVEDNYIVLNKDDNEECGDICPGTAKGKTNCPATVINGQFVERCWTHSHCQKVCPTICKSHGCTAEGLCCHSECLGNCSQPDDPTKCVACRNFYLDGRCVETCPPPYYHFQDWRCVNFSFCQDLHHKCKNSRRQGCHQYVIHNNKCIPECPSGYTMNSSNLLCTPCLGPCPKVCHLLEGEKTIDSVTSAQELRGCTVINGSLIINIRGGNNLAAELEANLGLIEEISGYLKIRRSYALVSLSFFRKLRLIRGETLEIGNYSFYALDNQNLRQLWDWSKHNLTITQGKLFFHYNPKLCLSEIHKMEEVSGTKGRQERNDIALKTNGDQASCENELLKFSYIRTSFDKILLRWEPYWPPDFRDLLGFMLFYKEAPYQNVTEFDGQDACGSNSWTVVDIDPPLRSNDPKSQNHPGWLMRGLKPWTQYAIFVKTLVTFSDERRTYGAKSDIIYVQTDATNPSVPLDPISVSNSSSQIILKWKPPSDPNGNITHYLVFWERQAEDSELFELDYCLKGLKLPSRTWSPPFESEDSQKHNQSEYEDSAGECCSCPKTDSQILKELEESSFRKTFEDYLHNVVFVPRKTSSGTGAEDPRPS
Sequence of Insulin receptor (Homo sapiens) (P06213 763-1382 limits assumed): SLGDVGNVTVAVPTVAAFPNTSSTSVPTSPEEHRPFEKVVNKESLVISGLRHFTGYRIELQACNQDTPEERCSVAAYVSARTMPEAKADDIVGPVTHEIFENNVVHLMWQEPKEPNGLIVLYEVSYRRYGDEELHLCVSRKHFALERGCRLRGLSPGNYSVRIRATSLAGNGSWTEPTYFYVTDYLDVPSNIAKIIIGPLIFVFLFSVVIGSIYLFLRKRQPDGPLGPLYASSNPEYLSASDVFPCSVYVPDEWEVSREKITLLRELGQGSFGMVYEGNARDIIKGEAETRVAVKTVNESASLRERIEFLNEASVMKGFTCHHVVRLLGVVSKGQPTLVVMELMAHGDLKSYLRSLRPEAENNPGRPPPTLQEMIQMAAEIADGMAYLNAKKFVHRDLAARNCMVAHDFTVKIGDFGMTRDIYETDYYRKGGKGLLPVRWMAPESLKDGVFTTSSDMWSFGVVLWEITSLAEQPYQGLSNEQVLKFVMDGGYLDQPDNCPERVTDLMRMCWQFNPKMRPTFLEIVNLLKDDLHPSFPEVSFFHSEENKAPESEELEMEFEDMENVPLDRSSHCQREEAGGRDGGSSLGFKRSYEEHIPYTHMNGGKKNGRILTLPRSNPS
Conditions: not given
`C/C=C/Cn1cc(-c2cc(OC)c(C(=O)N3CCOCC3)cc2OC)c2cc(C)[nH]c2c1=O`: the inhibition is 3%.

With `C/C=C/Cn1cc(-c2ccc(C(C)(C)O)cc2OC)c2cc[nH]c2c1=O`, the inhibition was found to be 4.5%.

The target of the next test is Tyrosine-protein kinase JAK1 (Homo sapiens) (UniProt P23458). Kind of test: Inhibition of JAK1 (unknown origin) at 1 uM relative to control.
Sequence of Tyrosine-protein kinase JAK1 (Homo sapiens) (P23458 whole entry): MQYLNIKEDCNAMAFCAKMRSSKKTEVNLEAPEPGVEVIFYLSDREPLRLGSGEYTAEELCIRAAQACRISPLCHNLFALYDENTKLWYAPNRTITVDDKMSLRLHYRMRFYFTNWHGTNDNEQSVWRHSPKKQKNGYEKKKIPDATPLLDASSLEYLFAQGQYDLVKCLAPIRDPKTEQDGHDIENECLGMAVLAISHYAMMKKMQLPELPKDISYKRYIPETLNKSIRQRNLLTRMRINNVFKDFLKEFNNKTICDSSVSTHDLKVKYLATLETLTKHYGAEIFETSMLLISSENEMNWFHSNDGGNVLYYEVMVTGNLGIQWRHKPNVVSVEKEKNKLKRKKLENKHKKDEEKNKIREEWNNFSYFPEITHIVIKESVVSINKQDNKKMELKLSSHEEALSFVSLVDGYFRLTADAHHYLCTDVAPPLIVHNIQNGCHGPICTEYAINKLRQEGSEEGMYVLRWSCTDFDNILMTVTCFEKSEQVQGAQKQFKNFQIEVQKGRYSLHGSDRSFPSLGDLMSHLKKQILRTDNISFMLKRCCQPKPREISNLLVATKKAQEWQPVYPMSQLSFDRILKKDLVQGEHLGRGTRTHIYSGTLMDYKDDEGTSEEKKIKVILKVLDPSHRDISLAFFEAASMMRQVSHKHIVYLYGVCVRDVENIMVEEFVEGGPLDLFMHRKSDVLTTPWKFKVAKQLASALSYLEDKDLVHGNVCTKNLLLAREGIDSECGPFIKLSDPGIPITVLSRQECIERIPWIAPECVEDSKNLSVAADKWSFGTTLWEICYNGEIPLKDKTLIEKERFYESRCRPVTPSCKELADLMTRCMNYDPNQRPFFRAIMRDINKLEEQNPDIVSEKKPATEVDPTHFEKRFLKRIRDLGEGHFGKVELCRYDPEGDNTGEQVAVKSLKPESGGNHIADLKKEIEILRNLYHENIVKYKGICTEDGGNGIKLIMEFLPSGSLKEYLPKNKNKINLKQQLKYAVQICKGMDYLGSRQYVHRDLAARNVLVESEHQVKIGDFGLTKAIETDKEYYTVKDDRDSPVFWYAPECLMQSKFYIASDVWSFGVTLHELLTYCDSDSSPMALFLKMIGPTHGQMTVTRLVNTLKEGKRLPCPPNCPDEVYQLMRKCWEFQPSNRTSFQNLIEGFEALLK
Conditions: not given
Consider `C/C=C/Cn1cc(-c2cc(OC)c(C(=O)N3CCOCC3)cc2OC)c2cc(C)[nH]c2c1=O`, for which the inhibition was -4.5%.

On to `C/C=C/Cn1cc(-c2ccc(C(C)(C)O)cc2OC)c2cc[nH]c2c1=O`, for which the inhibition was -2.5%.

The target in a further test is Misshapen-like kinase 1 (Homo sapiens) (UniProt Q8N4C8). Kind of test: Inhibition of Mink1 (unknown origin) at 1 uM relative to control.
Sequence of Misshapen-like kinase 1 (Homo sapiens) (Q8N4C8 whole entry, looked up): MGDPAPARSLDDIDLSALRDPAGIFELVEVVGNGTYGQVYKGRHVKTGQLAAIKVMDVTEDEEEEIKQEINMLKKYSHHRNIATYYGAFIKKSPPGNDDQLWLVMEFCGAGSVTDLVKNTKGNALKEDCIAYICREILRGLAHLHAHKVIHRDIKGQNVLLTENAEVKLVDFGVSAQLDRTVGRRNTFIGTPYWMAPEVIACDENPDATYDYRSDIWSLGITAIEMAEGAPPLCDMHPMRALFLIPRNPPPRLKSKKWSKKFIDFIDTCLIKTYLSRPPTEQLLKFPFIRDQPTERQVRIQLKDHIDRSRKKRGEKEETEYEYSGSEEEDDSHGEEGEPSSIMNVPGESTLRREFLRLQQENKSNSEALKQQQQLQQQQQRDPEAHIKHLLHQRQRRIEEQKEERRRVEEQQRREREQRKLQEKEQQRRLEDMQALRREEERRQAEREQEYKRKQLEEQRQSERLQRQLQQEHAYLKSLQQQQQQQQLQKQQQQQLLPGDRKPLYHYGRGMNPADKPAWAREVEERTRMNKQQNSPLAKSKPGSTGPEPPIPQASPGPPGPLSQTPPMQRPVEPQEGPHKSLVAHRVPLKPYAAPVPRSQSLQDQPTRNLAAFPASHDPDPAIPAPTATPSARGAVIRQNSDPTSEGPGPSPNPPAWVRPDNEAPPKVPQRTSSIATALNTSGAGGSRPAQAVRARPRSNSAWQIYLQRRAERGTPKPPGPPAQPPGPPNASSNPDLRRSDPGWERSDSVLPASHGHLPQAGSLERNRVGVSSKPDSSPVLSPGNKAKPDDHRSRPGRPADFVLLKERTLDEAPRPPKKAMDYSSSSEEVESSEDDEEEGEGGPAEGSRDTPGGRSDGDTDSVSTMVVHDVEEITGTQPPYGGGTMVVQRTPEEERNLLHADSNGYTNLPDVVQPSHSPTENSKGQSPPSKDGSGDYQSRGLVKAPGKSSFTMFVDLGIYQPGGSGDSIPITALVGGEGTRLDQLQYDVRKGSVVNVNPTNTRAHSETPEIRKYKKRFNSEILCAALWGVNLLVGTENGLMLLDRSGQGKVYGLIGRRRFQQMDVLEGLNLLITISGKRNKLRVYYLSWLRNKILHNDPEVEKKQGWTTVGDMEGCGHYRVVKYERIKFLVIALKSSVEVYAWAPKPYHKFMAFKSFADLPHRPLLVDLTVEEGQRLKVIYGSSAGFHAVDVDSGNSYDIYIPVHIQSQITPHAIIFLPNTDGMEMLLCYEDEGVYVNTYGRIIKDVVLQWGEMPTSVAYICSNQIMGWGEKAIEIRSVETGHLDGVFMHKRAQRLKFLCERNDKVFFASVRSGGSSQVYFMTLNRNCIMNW
Conditions: not given
`C/C=C/Cn1cc(-c2cc(OC)c(C(=O)N3CCOCC3)cc2OC)c2cc(C)[nH]c2c1=O`: the inhibition is 8%.

For `C/C=C/Cn1cc(-c2ccc(C(C)(C)O)cc2OC)c2cc[nH]c2c1=O`, the inhibition worked out at 18%.

The target of a further test is Beta-1 adrenergic receptor (Homo sapiens) (UniProt P08588). Kind of test: Displacement of [3H](-)CGP 12177 from human beta1 adrenoceptor at 10 uM after 60 mins by scintillation counting analysis relative to control.
Sequence of Beta-1 adrenergic receptor (Homo sapiens) (P08588 whole entry, looked up): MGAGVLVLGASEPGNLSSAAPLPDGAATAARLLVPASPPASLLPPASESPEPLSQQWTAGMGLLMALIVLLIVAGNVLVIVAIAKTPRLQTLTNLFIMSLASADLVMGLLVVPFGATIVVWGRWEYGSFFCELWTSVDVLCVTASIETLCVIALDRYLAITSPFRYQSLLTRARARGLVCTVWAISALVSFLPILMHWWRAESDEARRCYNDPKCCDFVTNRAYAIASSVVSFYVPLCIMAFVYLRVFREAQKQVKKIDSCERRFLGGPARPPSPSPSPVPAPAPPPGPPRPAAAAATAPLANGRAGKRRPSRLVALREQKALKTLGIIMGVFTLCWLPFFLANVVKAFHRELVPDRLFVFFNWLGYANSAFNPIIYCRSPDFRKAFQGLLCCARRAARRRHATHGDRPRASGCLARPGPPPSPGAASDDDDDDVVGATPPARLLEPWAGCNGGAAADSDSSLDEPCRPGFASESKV
Conditions: not given
A general note: Loss of bound radioactivity is the signal in a displacement assay; it reports binding, not function.
As for `C/C=C/Cn1cc(-c2cc(OC)c(C(=O)N3CCOCC3)cc2OC)c2cc(C)[nH]c2c1=O`, the Activity is 12%.

Regarding `C/C=C/Cn1cc(-c2ccc(C(C)(C)O)cc2OC)c2cc[nH]c2c1=O`, the Activity was found to be 11%.

The target in the next test is Histamine H2 receptor (Homo sapiens) (UniProt P25021). As to the kind of experiment: Displacement of [125I]APT from human recombinant histamine H2 receptor at 10 uM after 120 mins by scintillation counting analysis relative to control.
Sequence of Histamine H2 receptor (Homo sapiens) (P25021 whole entry): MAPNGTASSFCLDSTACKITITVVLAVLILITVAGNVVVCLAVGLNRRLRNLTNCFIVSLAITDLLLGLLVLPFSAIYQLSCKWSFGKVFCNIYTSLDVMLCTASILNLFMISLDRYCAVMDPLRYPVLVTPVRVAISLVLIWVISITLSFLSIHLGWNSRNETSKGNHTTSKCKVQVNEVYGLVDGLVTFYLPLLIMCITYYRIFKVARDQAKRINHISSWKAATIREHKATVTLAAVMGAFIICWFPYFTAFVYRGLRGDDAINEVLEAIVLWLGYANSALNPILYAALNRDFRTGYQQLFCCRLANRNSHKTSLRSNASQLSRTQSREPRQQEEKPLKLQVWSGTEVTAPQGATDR
Conditions: not given
For `C/C=C/Cn1cc(-c2cc(OC)c(C(=O)N3CCOCC3)cc2OC)c2cc(C)[nH]c2c1=O`, the Activity was -5%.

In the case of `C/C=C/Cn1cc(-c2ccc(C(C)(C)O)cc2OC)c2cc[nH]c2c1=O`, the Activity was determined as 1%.

The IC50 is the midpoint of a concentration-inhibition curve. A word on the Kd: it is the constant that tells how readily two partners part at equilibrium. A higher Kd goes with lower affinity. The inhibition is the relative decrease from the control value, in per cent.
